17 compounds from patent US10251881B2, “Particulate materials” (priority 2002, dated 2019) can be followed below.

Structures can show the parent of a compound that is named as a salt.

Holding throughout (assay type): physicochemical
Series [1] in a line: Flocculation volume of particulate drug suspended in propellant (HFA 134a or HFA 227ea). The source says:
Flocculation volume, sometimes referred to as “sedimentation volume”, can be measured by a conventional and relatively simple method. The substance under test, in particulate form, is suspended in the desired fluid vehicle at a suitable concentration. The mixture should be well agitated (typically, simply by shaking) to ensure a uniform dispersion of particles in the fluid at the start of measurement. Immediately after agitation ceases, timing begins. The mixture is left to stand, usually under ambient conditions, and the degree of settling or creaming of the solid observed over time. The flocculation volume of the mixture at a given point in time is the volume of fluid which is still occupied by the particulate dispersion, expressed as a percentage of the total fluid volume. A higher flocculation volume thus indicates less settling/creaming, which indicates improved performance. All references herein to flocculation volumes, unless otherwise stated, are to measurements made at 22° C. […] Measurements were taken at 22° C.

Series [2] in a line: Particle size of the powders (AEROSIZER, SYMPATEC). Conditions: powder; for MMAD: AEROSIZER
The text has this:
Particle sizes may be measured for instance using (a) an AEROSIZER™ time-of-flight instrument (which gives an aerodynamic equivalent particle diameter, MMAD) or (b) a laser diffraction sensor such as the HELOS™ system available from SYMPATEC™ GmbH, Germany (which provides a geometric projection equivalent MMD). MMADs may also be assessed using a cascade impactor. Volume mean diameters may be obtained in both cases using commercially available software packages.

Series [3] is described as follows: Particle size of the powders (AEROSIZER, SYMPATEC).
The mark [4] stands for this setting: HFA 134a, 1% w/v, 22° C., after 10 minutes.
[5] abbreviates: HFA 134a, averaged over the first 2 minutes.
Setting [6] is: HFA 227ea, averaged over the first 2 minutes.
Setting [7] is: HFA 134a, averaged over the first minute.
[8] abbreviates: HFA 227ea, 1% w/v, 22° C., after 5 minutes.
Where [9] appears, read: HFA 227ea, averaged over the first minute.
Setting [10] is: HFA 227ea, 1% w/v, 22° C., after 10 minutes.
Where [11] appears, read: HFA 227ea, 1% w/v, 22° C., after 1 minute.

Consider `CCCCCCCCCCCCCCCC(=O)OC1CCCn2c1nc(C)c(CCN1CCC(c3noc4cc(F)ccc34)CC1)c2=O` (single isomer, unassigned) [risperidone-(9-hydroxy)-palmitate sample A], for which the flocculation volume in series [1] (setting [4]) is given as 100%. Also, the “rate of change in flocculation volume (flocculation rate)” value (“rate of change in flocculation volume” for short) in series [1] (setting [5]) is 0 % per minute; in series [1] (setting [6]) it was −2.5 % per minute. Further, in series [2] (SYMPATEC), the MMD was 2.95 μm.
For `CCCCCCCCCCCCCCCC(=O)OC1CCCn2c1nc(C)c(CCN1CCC(c3noc4cc(F)ccc34)CC1)c2=O` (single isomer, unassigned) [risperidone-(9-hydroxy)-palmitate sample B] the same measures were 100%, 0 % per minute, −3 % per minute and 2.5 μm.
For `CCCCCCCCCCCCCCCC(=O)OC1CCCn2c1nc(C)c(CCN1CCC(c3noc4cc(F)ccc34)CC1)c2=O` (single isomer, unassigned) [risperidone-(9-hydroxy)-palmitate sample C], in that order: “greater than 80%”, −1 % per minute, −3 % per minute and 3.5 μm.
Take `OCc1cc(C(O)CNCCCCCCOCCCCc2ccccc2)ccc1O` (single isomer, unassigned) [salmeterol xinafoate sample A, Salmeterol xinafoate]: the “rate of change in flocculation volume” value in series [1] (setting [5]) is on record as −3 % per minute; in series [1] (setting [6]), −11 % per minute. In series [2], this compound gave an MMAD of 5.3 μm.
Regarding `OCc1cc(C(O)CNCCCCCCOCCCCc2ccccc2)ccc1O` (single isomer, unassigned) [salmeterol xinafoate sample B, salmeterol xinafoate], the flocculation volume entry was “greater than 98%” in series [1] (setting [4]) and “greater than 98%” in series [1] (HFA 134a, after 24 hours standing). For the same compound, the entries for the “rate of change in flocculation volume” value in series [1] (setting [5]) and in series [1] (setting [6]) were −0.2 % per minute and −19 % per minute, respectively. For the same compound, in series [2], the MMAD came to 1.6 μm.
With `OCc1cc(C(O)CNCCCCCCOCCCCc2ccccc2)ccc1O` (single isomer, unassigned) [salmeterol xinafoate sample C, salmeterol xinafoate], the flocculation volume result in series [1] (HFA 134a, 1% w/v, 22° C., after 3 minutes) is reported as “below 40%”; in series [1] (setting [4]), 30%; in series [1] (setting [8]) it was “below 35%”. In addition, the “rate of change in flocculation volume” value in series [1] (setting [7]) is given as −38 % per minute; in series [1] (setting [9]) it was −53 % per minute. In series [2], the MMAD turned out to be 1.1 μm.
As to `CN1C[C@H](C(=O)N[C@]2(C)O[C@@]3(O)[C@@H]4CCCN4C(=O)[C@H](Cc4ccccc4)N3C2=O)C[C@@H]2c3cccc4[nH]cc(c34)C[C@H]21` [DHE SEDS® product, dihydroergotamine mesylate], the flocculation volume in series [1] (setting [10]) was found to be 100%. Moreover, the creaming entry in series [1] (HFA 227ea, after 24 hours standing) is on record as “no visible creaming”. For the same compound, the “rate of change in flocculation volume” value in series [1] (setting [6]) is 0 % per minute. Moreover, in series [2], the MMAD turned out to be 1.25 μm.
For the compound `CN1C[C@H](C(=O)N[C@]2(C)O[C@@]3(O)[C@@H]4CCCN4C(=O)[C@H](Cc4ccccc4)N3C2=O)C[C@@H]2c3cccc4[nH]cc(c34)C[C@H]21` [DHE micronized sample, dihydroergotamine mesylate], the flocculation volume result is reported as “less than 20%” in series [1] (setting [11]) and “less than 10%” in series [1] (setting [8]). Moreover, the “rate of change in flocculation volume” value in series [1] (setting [9]) was −90 % per minute. The compound further displayed an MMD in series [2] (instrument not stated) of 15.1 μm.
Turning to `CC(C)C[C@H]1C(=O)N2CCC[C@H]2[C@]2(O)O[C@](NC(=O)[C@@H]3C=C4c5cccc6[nH]c(Br)c(c56)C[C@H]4N(C)C3)(C(C)C)C(=O)N12` [bromocriptine mesylate sample B, Bromocriptine mesylate], the flocculation volume turned out to be 53% in series [1] (setting [4]) and 95% in series [1] (setting [10]).
For the compound `CN1C[C@H](C(=O)N[C@]2(C)O[C@@]3(O)[C@@H]4CCCN4C(=O)[C@H](Cc4ccccc4)N3C2=O)C[C@@H]2c3cccc4[nH]cc(c34)C[C@H]21` [crystalline DHE (Examples 9), dihydroergotamine mesylate], the bulk powder density in series [3] was 0.14 g/mL. In series [2] (SYMPATEC), this compound had a VMD of 2.8 μm.
For the compound `CCC(=O)O[C@]1(C(=O)SCF)[C@H](C)C[C@H]2[C@@H]3C[C@H](F)C4=CC(=O)C=C[C@]4(C)[C@@]3(F)[C@@H](O)C[C@@]21C` [fluticasone propionate sample A, fluticasone propionate], in series [1] (setting [4]), the flocculation volume result is listed as “about 50%”. The “rate of change in flocculation volume” value in series [1] (setting [5]) is given as −20 % per minute. Moreover, the MMD in series [2] (SYMPATEC) turned out to be 2.3 μm.
On to `CCC(=O)O[C@]1(C(=O)SCF)[C@H](C)C[C@H]2[C@@H]3C[C@H](F)C4=CC(=O)C=C[C@]4(C)[C@@]3(F)[C@@H](O)C[C@@]21C` [fluticasone propionate sample B, fluticasone propionate], for which the flocculation volume entry in series [1] (setting [4]) is given as “greater than 90%”. Further, the “rate of change in flocculation volume” value is listed as −1 % per minute in series [1] (setting [5]) and −0.5 % per minute in series [1] (setting [6]). The same compound had an MMD in series [2] (SYMPATEC) of 5.6 μm.
Turning to `CCC(=O)O[C@]1(C(=O)SCF)[C@H](C)C[C@H]2[C@@H]3C[C@H](F)C4=CC(=O)C=C[C@]4(C)[C@@]3(F)[C@@H](O)C[C@@]21C` [fluticasone propionate sample C, fluticasone propionate], the “rate of change in flocculation volume” value in series [1] (setting [6]) is recorded as 0 % per minute. The MMD in series [2] (SYMPATEC) is 2.3 μm.
For `CCC(=O)O[C@]1(C(=O)SCF)[C@H](C)C[C@H]2[C@@H]3C[C@H](F)C4=CC(=O)C=C[C@]4(C)[C@@]3(F)[C@@H](O)C[C@@]21C` [fluticasone propionate sample D, fluticasone propionate], the flocculation volume entry in series [1] (setting [4]) is recorded as “below 30%”; in series [1] (HFA 227ea, 1% w/v, 22° C., after 3 minutes), “less than 30%”. For the same compound, the “rate of change in flocculation volume” value in series [1] (setting [7]) is recorded as −68 % per minute; in series [1] (setting [9]) it was −40 % per minute. This compound also showed an MMD in series [2] (instrument not stated) of 2.0 μm.
For the compound `CCCCCCCCCCCCCCCC(=O)OC1CCCn2c1nc(C)c(CCN1CCC(c3noc4cc(F)ccc34)CC1)c2=O` (centres unmarked) [risperidone-(9-hydroxy)-palmitate], the flocculation volume entry in series [1] (HFA 134a, 1% w/v, 22° C., after 1 minute) is “less than 20%”; in series [1] (setting [11]), “less than 20%”. The “rate of change in flocculation volume” value in series [1] (setting [7]) is given as −152 % per minute; in series [1] (setting [9]) it was −117 % per minute. For the same compound, in series [2] (instrument not stated), the MMD was found to be 8.1 μm.
Regarding `CC(C)(C)NCC(O)c1ccc(O)c(CO)c1` (centres unmarked) [salbutamol micronized sample, salbutamol], the flocculation volume result in series [1] (HFA 134a, 1% w/v, 22° C., after 2 minutes) is “less than 20%”; in series [1] (HFA 227ea, 1% w/v, 22° C., after 2 minutes), “less than 20%”. Also, the “rate of change in flocculation volume” value in series [1] (setting [7]) is −84 % per minute; in series [1] (setting [9]), −55 % per minute. In series [2] (instrument not stated), this compound showed an MMD of 14.5 μm.
Regarding “Salbutamol sulphate [salbutamol sulphate SEDS® product]”, the flocculation volume entry is listed as “greater than 70%” in series [1] (setting [4]); “greater than 70%” in series [1] (HFA 227ea, 1% w/v, 22° C., after 8 minutes); “greater than 60%” in series [1] (setting [10]). Moreover, the “rate of change in flocculation volume” value is recorded as −10 % per minute in series [1] (setting [5]) and −5 % per minute in series [1] (setting [6]). This compound also displayed an MMD in series [2] (SYMPATEC) of 3.95 μm.
